Measured values taken from patent US20190030046A1, “USE OF PURE COMPOUNDS EXTRACTED FROM ANTRODIA CAMPHORATA” (priority 2016, published 2019).

Key:
[1] = HFD-induced diabetic mice: histopathology (H-E) of epididymal white adipose and liver tissue; format: in vivo, C57BL/6J mice; conditions: epididymal white adipose, 4 weeks
Procedure: (§1) The difference indicates the daily food intake.
Examination was performed for parts of EWAT (epididymal white adipose) and liver tissue specimens collected. The specimens above were soaked in formalin and neutral buffered solution and embedded in paraffin. Parts therein (8 μm) were cut and stained with hematoxylin and eosin. Images were photographed by a microscope (Olympus BX51, Olympus, Tokyo, Japan). Please refer to FIGS. 3(A) and 3(B).

[2] = HFD-induced diabetic mice: liver lipids; format: in vivo, C57BL/6J mice; conditions: 4 weeks
[3] = HFD-induced diabetic mice: absolute tissue weight, body weight, food intake; format: in vivo, C57BL/6J mice; conditions: 4 weeks
Excerpt: as §1

[4] = HFD-induced diabetic mice: fasting blood glucose and biochemical indexes; conditions: 4 weeks; for Blood glucose: 12 h fasted HFD mice; for Insulin / Leptin: blood
Procedure: The control group and HFD group contained 10% and 45% fat intake, respectively. The HFD mice were subdivided into 6 groups (9 per group) followed by 8-week induction. […] During the experiment, all mice were fasted overnight, and blood samples were collected from the retro-orbital sinus. Following four-week treatment and feeding, the food was removed, and the mice were fasted for 12 h and then sacrificed. Tissue samples required were collected from the mice and weighted. Some of the tissue samples were immediately stored at −80° C. and frozen for subsequent target gene analysis. Plasma samples were collected via centrifugation of whole blood at 1600×g for 15 min at 4° C., followed by plasma separation within 30 min. Some plasma samples obtained were used for TG and TC analysis. The metabolic parameters, including body weight, weight gain, and food intake, were performed as follows. Body weight was daily measured throughout the study. Body weight gain is considered as the difference between one day and the next day. The total weight of food intake was daily measured, followed by weighing the amount of remaining feed after 24 h. The difference indicates the daily food intake.
One part of the forgoing blood samples collected from the retro-orbital sinus of 12 h fasted mice was immediately used for analysis of glucose levels. The other part was used for analysis of blood TG, TC, free fatty acids, blood insulin, leptin, and adiponectin levels. Blood glucose levels were determined by a glucose analyzer (Model 1500 sidekick glucose analyzer, YSI). Plasma triglycerides (TG), total cholesterol (TC), and free fatty acids (FFA) were determined using commercial kits in accordance with manufacturer's instructions (Triglycerides-E test, Cholesterol-E test, and FFA-C test; Wako Pure Chemical, Osaka, Japan). Insulin and leptin levels were measured by enzyme-linked immunosorbent assay (ELISA) (mouse insulin ELISA kit, Mercodia, Uppsala, Sweden; mouse leptin ELISA kit, Morinaga, Yokohama, Japan).

[5] = test system: phospho-Akt(Ser473)/total-Akt(Ser473); assay: phospho-Akt(Ser473)/total-Akt in C2C12 myotube cells (Western blot); format: cell-based; conditions: 25 min
Procedure: (§2) In the present invention, C2C12 skeletal myoblasts (ATCC, CRL-1772) were maintained in growth media consisting of Dulbecco's modified Eagle's medium (DMEM) (Gibco BRL) and supplemented with 10% Fetal Bovine Serum (FBS) (Hyclone) and 100 U/mL penicillin/100 μg/mL streptomycin (Gibco BRL), and split 1:4 using 0.05% trypsin when 80% confluent. Myoblasts were diluted and placed in a 9 cm-diameter dish. Cells were cultured to achieve 80%-90% confluency and then the growth media was changed as 2% FBS/DMEM every 24 h for 5-7 days.
(§3) In experiments for determining GLUT4 and p-Akt(Ser473)/t-Akt proteins in tubes, differentiated C2C12 cells were serum-starved in DMEM/BSA for 2 h at 37° C. prior to incubation with MeOH crude extract (at 20, 100, 200, and 500 μg/mL), test compounds (at 1, 5, 10, and 25 μg/mL), or vehicle for 25 min, or 100 nM insulin for 25 min.
(§4) The cultures obtained by cell culture above were centrifuged, and the resulting pellet was resuspended in a homogenization buffer. The forgoing steps were performed with a filtration membrane. Protein concentrations were measured using a BCA assay (Pierce). Equal amounts of protein were diluted four times in SDS sample buffer, and subjected to SDS PAGE and Western blotting with antibodies specific for Akt, p-Akt Ser^473, and GLUT4. Density blotting analysis was performed using Alpha Easy FC software.

membrane GLUT4 [6] = assay: Membrane GLUT4 protein expression in C2C12 myotube cells (Western blot); format: cell-based; conditions: 25 min
Procedure: as §2, §3, §4

CPT-1a = assay: Semiquantitative RT-PCR in liver tissue: CPT-1a; format: in vivo, C57BL/6J mice; conditions: vs HF; HF+Metf, 0.3 g/kg/day oral, 4 weeks
Procedure: as §1
(§5) Total RNA from liver tissue was isolated with a Trizol Reagent (Molecular Research Center, Inc., Cincinnati, Ohio, USA) according to the manufacturer's instructions. The integrity of the extracted total RNA was examined by 2% agarose gel electrophoresis, and the RNA concentration was determined by […] ultraviolet (UV) light absorbency at 260 nm and 280 nm (Spectrophotometer U-2800A, Hitachi). The total RNA (1 μg) was reverse transcribed to cDNA, and 5 μL Moloney murine leukemia virus reverse transcriptase (TEpicentre, Madison, Wis., USA). The PCR was performed in a final 25 μL containing 1 U Blend Taq-Plus (TOYOBO, Japan), 10 μL of the RT cDNA product, 10 μM of each forward (F) and reverse (R) primer, 75 mM Tris-HCL (pH 8.3) containing 1 mg/L Tween 20 (pH 8.3, also known as polyoxyethylene sorbitan monolaurate), 2.5 mM dNTP (deoxy-ribonucleoside triphosphate), and 2 mM MgCl2 (magnesium chloride). The PCR products were analyzed by 2% agarose gel and stained with ethidium bromide.

FAS = assay: Western blot of FAS protein in liver and adipose tissue of HFD mice; conditions: compared to HF; HF+Metf, 0.3 g/kg/day oral, 4 weeks
Procedure: (§6) The HFD mice were subdivided into 6 groups (9 per group) followed by 8-week induction. […] Following four-week treatment and feeding, the food was removed, and the mice were fasted for 12 h and then sacrificed. Tissue samples required were collected from the mice and weighted. Some of the tissue samples were immediately stored at −80° C. and frozen for subsequent target gene analysis. Plasma samples were collected via centrifugation of whole blood at 1600×g for 15 min at 4° C., followed by plasma separation within 30 min.
(§7) We determined PPARα and FAS protein expression levels in liver tissue, PPARγ and FAS protein expression levels in adipose tissue, and membrane GLUT4 expression in skeletal muscle adipose. The total membrane fraction was collected with the buffer and determined as previously described. The membrane GLUT4, p-AMPK, and total AMPK protein content were determined by Western Blotting as previously described.

PPARα = assay: Western blot of PPARα protein in liver of HFD mice; conditions: compared to HF; HF+Metf, 0.3 g/kg/day oral, 4 weeks
PPARγ = assay: Western blot of PPARγ protein in liver and adipose tissue of HFD mice; conditions: compared to HF; HF+Metf, 0.3 g/kg/day oral, 4 weeks
GPAT = assay: Semiquantitative RT-PCR in liver tissue: GPAT; format: in vivo, C57BL/6J mice; conditions: vs HF; HF+Metf, 0.3 g/kg/day oral, 4 weeks
Procedure: as §1, §5

phospho-AMPK(Thr172) = assay: Western blot of phospho-AMPK(Thr172)/total-AMPK in skeletal muscle and liver of HFD mice; conditions: compared to HF; HF+Metf, 0.3 g/kg/day oral, 4 weeks
Procedure: as §6, §7

SREBP-2 = assay: Semiquantitative RT-PCR in liver tissue: SREBP-2; format: in vivo, C57BL/6J mice; conditions: vs HF; HF+Metf, 0.3 g/kg/day oral, 4 weeks
Procedure: as §1, §5

SREBP-1c = assay: Semiquantitative RT-PCR in liver tissue: SREBP-1c; format: in vivo, C57BL/6J mice; conditions: vs HF; HF+Metf, 0.3 g/kg/day oral, 4 weeks
Procedure: as §1, §5

G6-Pase = assay: Semiquantitative RT-PCR in liver tissue: G6-Pase; format: in vivo, C57BL/6J mice; conditions: vs HF; HF+Metf, 0.3 g/kg/day oral, 4 weeks
Procedure: as §1, §5

aP2 = assay: Semiquantitative RT-PCR in liver tissue: aP2; format: in vivo, C57BL/6J mice; conditions: vs HF; HF+Metf, 0.3 g/kg/day oral, 4 weeks
Procedure: as §1, §5

membrane GLUT4 [7] = assay: Western blot of skeletal muscle membrane GLUT4 in HFD mice; conditions: compared to HF; HF+Metf, 0.3 g/kg/day oral, 4 weeks
Procedure: as §6, §7

11β-HSD1 = assay: Semiquantitative RT-PCR in liver tissue: 11β-HSD1; format: in vivo, C57BL/6J mice; conditions: vs HF; HF+Metf, 0.3 g/kg/day oral, 4 weeks
Procedure: as §1, §5

[8] = HFD mice, HF+Feno, 250 mg/kg/day oral
[9] = HFD mice, HF+Metf, 300 mg/kg/day oral
[10] = plasma, HFD mice, HF+Metf, 300 mg/kg/day oral

CC(C)OC(=O)C(C)(C)Oc1ccc(C(=O)c2ccc(Cl)cc2)cc1 [Feno, fenofibrate, reference compound]
Adipocyte area ([1]; HF+Feno, 0.25 g/kg/day oral): 6270.5 ± 165.4 μm^2
Liver lipids: Total lipid ([2]; HF+Feno, 250 mg/kg/day oral): 62.0 mg/g
Liver lipids: Triacylglycerol ([2]; HF+Feno, 250 mg/kg/day oral): 48.6 µmol/g
Final body weight ([3]; HF+Feno, 250 mg/kg/day oral): 26.04 g
Food intake ([3]; HF+Feno, 250 mg/kg/day oral): 2.05 g/day/mouse
Weight gain ([3]; HF+Feno, 250 mg/kg/day oral): 0.46 g
Blood glucose ([4]; HF+Feno, 250 mg/kg/day oral): 86.56 mg/dL
Plasma FFA [4, 8]: 0.86 meq/L
Insulin [4, 8]: 2.402 µg/L
Leptin [4, 8]: 7.507 ng/mL
TG ([4]; plasma, HFD mice, HF+Feno, 250 mg/kg/day oral): 83.35 mg/dL

C=C(CC[C@@H](C)[C@H]1CC[C@H]2C3=C(C(=O)C[C@]12C)[C@@]1(C)CC[C@@H](O)[C@](C)(O)[C@@H]1C[C@@H]3O)C(C)C(=O)O (stereo partly shown) [AnK, Antcin K]
protein expression level of phospho-Akt(Ser473)/total-Akt(Ser473) ([5]; AnK 10 and 25 μg/mL): increase
protein expression level of membrane GLUT4 (membrane GLUT4 [6]; 5, 10, and 25 μg/mL): increase

insulin [reference compound]
protein expression level of phospho-Akt(Ser473)/total-Akt(Ser473) ([5]; 100 nM insulin): increase
protein expression level of membrane GLUT4 (membrane GLUT4 [6]; 100 nM insulin): increase

CN(C)C(=N)N=C(N)N [Metf, metformin, reference compound]
CPT-1a mRNA expression level in liver (CPT-1a): increased
FAS protein expression level in adipose tissue (FAS): significantly decreased
FAS protein expression level in liver (FAS): significantly decreased
PPAR protein expression level in liver (PPARα): significantly increased
Adipocyte area ([1]; HF+Metf, 0.3 g/kg/day oral): 6919.5 ± 195.1 μm^2
PPARγ protein expression level in adipose tissue (PPARγ): significantly decreased
PPARγ protein expression level in liver (PPARγ): significantly decreased
GPAT mRNA expression level in liver (GPAT): decreased
expression level of p-AMPK/t-AMPK proteins in liver (phospho-AMPK(Thr172)): significantly increased
expression level of phospho-AMPK/total-AMPK in skeletal muscle (phospho-AMPK(Thr172)): significantly increased
Liver lipids: Total lipid ([2]; HF+Metf, 300 mg/kg/day oral): 61.1 mg/g
Liver lipids: Triacylglycerol ([2]; HF+Metf, 300 mg/kg/day oral): 49 µmol/g
SREBP-2 mRNA expression level in liver (SREBP-2): decreased
Absolute tissue weight: Visceral fat ([3]; EWAT plus RWAT, HF+Metf, 300 mg/kg/day oral): 662 mg
Absolute tissue weight: Brown adipose tissue (BAT) ([3]; HF+Metf, 300 mg/kg/day oral): 134 mg
Absolute tissue weight: Epididymal white adipose tissue (EWAT) ([3]; HF+Metf, 300 mg/kg/day oral): 482 mg
Absolute tissue weight: Liver ([3]; HF+Metf, 300 mg/kg/day oral): 1960 mg
Absolute tissue weight: Mesenteric white adipose tissue (MWAT) ([3]; HF+Metf, 300 mg/kg/day oral): 198 mg
Absolute tissue weight: Retroperitoneal white adipose tissue (RWAT) ([3]; HF+Metf, 300 mg/kg/day oral): 180 mg
Absolute tissue weight: Spleen ([3]; HF+Metf, 300 mg/kg/day oral): 81 mg
Final body weight ([3]; HF+Metf, 300 mg/kg/day oral): 26.35 g
Food intake ([3]; HF+Metf, 300 mg/kg/day oral): 2.25 g/day/mouse
Weight gain ([3]; HF+Metf, 300 mg/kg/day oral): 0.52 g
SREBP-1c mRNA expression level in liver (SREBP-1c): decreased
G6-Pase mRNA expression level in liver (G6-Pase): decreased
aP2 mRNA expression level in liver (aP2): decreased
membrane expression level of GLUT4 in skeletal muscle (membrane GLUT4 [7]): significantly increased
11β-HSD1 mRNA expression level in liver (11β-HSD1): decreased
Blood glucose ([4]; HF+Metf, 300 mg/kg/day oral): 87.33 mg/dL
Plasma FFA [4, 9]: 0.85 meq/L
Insulin [4, 9]: 2.467 µg/L
Leptin [4, 9]: 7.359 ng/mL
TC [4, 10]: 117.20 mg/dL
TG [4, 10]: 82.07 mg/dL
